Test results reported in ChEMBL document CHEMBL1909046, “DrugMatrix in vitro pharmacology data”.

Assays:
[1] = biological target: T1, Alpha-1D adrenergic receptor (Homo sapiens, UniProt P25100); type: cell membranes, HEK293, Membrane; conditions: hek293; note: in other assays of this panel Not Active means under 50% inhibition at 10 µM
T1 sequence (P25100 whole entry): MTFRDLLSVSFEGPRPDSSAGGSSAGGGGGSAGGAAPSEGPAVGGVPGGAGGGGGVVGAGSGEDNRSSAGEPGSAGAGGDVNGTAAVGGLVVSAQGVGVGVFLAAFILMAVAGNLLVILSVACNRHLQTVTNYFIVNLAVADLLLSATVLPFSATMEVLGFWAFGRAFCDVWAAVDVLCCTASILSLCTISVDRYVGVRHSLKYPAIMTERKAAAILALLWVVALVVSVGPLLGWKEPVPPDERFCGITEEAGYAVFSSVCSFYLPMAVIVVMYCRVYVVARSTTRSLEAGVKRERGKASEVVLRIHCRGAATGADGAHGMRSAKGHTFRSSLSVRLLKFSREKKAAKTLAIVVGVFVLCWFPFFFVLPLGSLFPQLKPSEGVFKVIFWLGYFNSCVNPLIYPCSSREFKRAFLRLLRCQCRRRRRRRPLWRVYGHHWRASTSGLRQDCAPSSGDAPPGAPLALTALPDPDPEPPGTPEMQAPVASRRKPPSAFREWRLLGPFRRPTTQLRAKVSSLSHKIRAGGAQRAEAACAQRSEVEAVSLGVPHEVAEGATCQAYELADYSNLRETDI

Vasopressin V1a receptor = Vasopressin V1a receptor (Homo sapiens, UniProt P37288); type: cell membranes, Membrane; conditions: hek293; note: in other assays of this panel Not Active means under 50% inhibition at 10 µM
Vasopressin V1a receptor, sequence (P37288 whole entry): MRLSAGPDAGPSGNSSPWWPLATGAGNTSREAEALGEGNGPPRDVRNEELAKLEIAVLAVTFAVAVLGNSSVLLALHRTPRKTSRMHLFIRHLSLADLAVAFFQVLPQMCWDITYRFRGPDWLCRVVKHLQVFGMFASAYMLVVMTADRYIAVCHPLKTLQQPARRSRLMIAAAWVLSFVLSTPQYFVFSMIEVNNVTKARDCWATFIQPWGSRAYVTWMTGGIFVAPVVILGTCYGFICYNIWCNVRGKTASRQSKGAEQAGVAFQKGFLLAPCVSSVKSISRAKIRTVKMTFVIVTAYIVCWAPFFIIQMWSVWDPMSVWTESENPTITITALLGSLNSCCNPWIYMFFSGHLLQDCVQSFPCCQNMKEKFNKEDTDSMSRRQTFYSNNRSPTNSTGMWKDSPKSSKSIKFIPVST

[2] = DRUGMATRIX: Serotonin (5-Hydroxytryptamine) 5-HT3 radioligand binding (ligand: [3H] GR-65630); type: cell membranes, Membrane; conditions: hek293; Not Active = under 50% inhibition at 10 µM
[3] = DRUGMATRIX: Phosphodiesterase PDE3 enzyme inhibition (substrate: [3H]cAMP + cAMP); type: tissue-based, Homo sapiens; conditions: platelet; Not Active = under 50% inhibition at 10 µM
B2 bradykinin receptor = biological target: T2, B2 bradykinin receptor (Homo sapiens, UniProt P30411); type: cell membranes, Membrane; conditions: chem-1; note: in other assays of this panel Not Active means under 50% inhibition at 10 µM
T2 sequence (P30411 whole entry): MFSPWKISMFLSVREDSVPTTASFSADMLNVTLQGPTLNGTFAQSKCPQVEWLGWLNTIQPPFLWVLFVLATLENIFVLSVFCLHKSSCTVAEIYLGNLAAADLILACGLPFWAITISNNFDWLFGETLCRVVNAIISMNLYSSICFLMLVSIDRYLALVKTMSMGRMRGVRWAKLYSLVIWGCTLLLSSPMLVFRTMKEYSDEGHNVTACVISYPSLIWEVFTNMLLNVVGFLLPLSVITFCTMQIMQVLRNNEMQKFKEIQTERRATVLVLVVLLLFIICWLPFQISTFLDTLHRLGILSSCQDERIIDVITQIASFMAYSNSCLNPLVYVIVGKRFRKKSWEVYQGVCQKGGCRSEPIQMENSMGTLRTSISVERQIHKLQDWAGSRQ

[4] = DRUGMATRIX: Nicotinic Acetylcholine radioligand binding (ligand: [125I] Epibatidine); type: cell membranes, Membrane; conditions: imr-32; Not Active = under 50% inhibition at 10 µM
[5] = DRUGMATRIX: Purinergic P2X radioligand binding (ligand: [3H] alpha, beta-Methylene-ATP); type: cell membranes, Oryctolagus cuniculus, New Zealand albino, Urinary bladder, Membrane; conditions: Not Active = under 50% inhibition at 10 µM
Cytochrome P450 2C19 = Cytochrome P450 2C19 (Homo sapiens, UniProt P33261); conditions: bti-tn-5b1-4; note: in other assays of this panel Not Active means under 50% inhibition at 10 µM
Cytochrome P450 2C19, sequence (P33261 whole entry): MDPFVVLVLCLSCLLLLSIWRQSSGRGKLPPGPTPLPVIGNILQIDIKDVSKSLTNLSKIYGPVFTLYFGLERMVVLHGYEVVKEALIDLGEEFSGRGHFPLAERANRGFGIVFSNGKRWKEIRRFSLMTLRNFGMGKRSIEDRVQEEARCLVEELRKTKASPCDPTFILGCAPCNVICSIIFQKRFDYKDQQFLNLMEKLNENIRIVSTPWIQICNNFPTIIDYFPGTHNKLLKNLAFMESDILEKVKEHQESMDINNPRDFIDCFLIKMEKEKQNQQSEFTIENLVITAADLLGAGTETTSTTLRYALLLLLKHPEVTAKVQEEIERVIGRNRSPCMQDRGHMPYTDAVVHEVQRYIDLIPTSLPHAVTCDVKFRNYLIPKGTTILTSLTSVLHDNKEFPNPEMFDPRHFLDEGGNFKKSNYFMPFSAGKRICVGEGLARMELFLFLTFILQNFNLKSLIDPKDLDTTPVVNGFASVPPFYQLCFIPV

O=C(O)Cc1ccccc1Nc1c(Cl)cccc1Cl [DICLOFENAC]
Not Active: IC50 [1] | IC50 (Vasopressin V1a receptor) | IC50 [2] | Ki [2] | IC50 [3] | Ki [3] | IC50 (B2 bradykinin receptor) | IC50 [4] | Ki [4] | IC50 [5] | Ki [5] | IC50 (Cytochrome P450 2C19) | Ki (Cytochrome P450 2C19)

C[C@H]1O[C@@H](O[C@H]2[C@@H](O)C[C@H](O[C@H]3[C@@H](O)C[C@H](O[C@H]4CC[C@@]5(C)[C@H](CC[C@@H]6[C@@H]5CC[C@]5(C)[C@@H](C7=CC(=O)OC7)CC[C@]65O)C4)O[C@@H]3C)O[C@@H]2C)C[C@H](O)[C@@H]1O [DIGITOXIN]
Not Active: IC50 [1] | IC50 (Vasopressin V1a receptor) | IC50 [2] | Ki [2] | IC50 [3] | Ki [3] | IC50 (B2 bradykinin receptor) | IC50 [4] | Ki [4] | IC50 [5] | Ki [5] | IC50 (Cytochrome P450 2C19) | Ki (Cytochrome P450 2C19)

CCN1CC(CCN2CCOCC2)C(c2ccccc2)(c2ccccc2)C1=O (stereo unspecified) [DOXAPRAM]
Not Active: IC50 [1] | IC50 (Vasopressin V1a receptor) | IC50 [2] | Ki [2] | IC50 [3] | Ki [3] | IC50 (B2 bradykinin receptor) | IC50 [4] | Ki [4] | IC50 [5] | Ki [5] | IC50 (Cytochrome P450 2C19) | Ki (Cytochrome P450 2C19)

Cn1c(=O)c2c(ncn2CC2OCCO2)n(C)c1=O [DOXOFYLLINE]
Not Active: IC50 [1] | IC50 (Vasopressin V1a receptor) | IC50 [2] | Ki [2] | IC50 [3] | Ki [3] | IC50 (B2 bradykinin receptor) | IC50 [4] | Ki [4] | IC50 [5] | Ki [5] | IC50 (Cytochrome P450 2C19) | Ki (Cytochrome P450 2C19)

COc1cccc2c1C(=O)c1c(O)c3c(c(O)c1C2=O)C[C@@](O)(C(=O)CO)C[C@@H]3O[C@H]1C[C@H](N)[C@H](O)[C@H](C)O1 [DOXORUBICIN]
Not Active: IC50 [1] | IC50 (Vasopressin V1a receptor) | IC50 [2] | Ki [2] | IC50 [3] | Ki [3] | IC50 (B2 bradykinin receptor) | IC50 [4] | Ki [4] | IC50 [5] | Ki [5] | IC50 (Cytochrome P450 2C19) | Ki (Cytochrome P450 2C19)

COc1cccc2c1C(=O)c1c(O)c3c(c(O)c1C2=O)C[C@@](O)(C(=O)CO)C[C@@H]3O[C@H]1C[C@H](N)[C@@H](O)[C@H](C)O1 [EPIRUBICIN]
Not Active: IC50 [1] | IC50 (Vasopressin V1a receptor) | IC50 [2] | Ki [2] | IC50 [3] | Ki [3] | IC50 (B2 bradykinin receptor) | IC50 [4] | Ki [4] | IC50 [5] | Ki [5] | IC50 (Cytochrome P450 2C19) | Ki (Cytochrome P450 2C19)

C[C@]12CC[C@@H]3c4ccc(OC(=O)c5ccccc5)cc4CC[C@H]3[C@@H]1CC[C@@H]2O [ESTRADIOL BENZOATE]
Not Active: IC50 [1] | IC50 (Vasopressin V1a receptor) | IC50 [2] | Ki [2] | IC50 [3] | Ki [3] | IC50 (B2 bradykinin receptor) | IC50 [4] | Ki [4] | IC50 [5] | Ki [5] | IC50 (Cytochrome P450 2C19) | Ki (Cytochrome P450 2C19)

C[C@]12CC[C@@H]3c4ccc(O)cc4CC[C@H]3[C@@H]1CC[C@@H]2O [ESTRADIOL]
Not Active: IC50 [1] | IC50 (Vasopressin V1a receptor) | IC50 [2] | Ki [2] | IC50 [3] | Ki [3] | IC50 (B2 bradykinin receptor) | IC50 [4] | Ki [4] | IC50 [5] | Ki [5] | IC50 (Cytochrome P450 2C19) | Ki (Cytochrome P450 2C19)

CC[C@@H](CO)NCCN[C@@H](CC)CO [ETHAMBUTOL]
Not Active: IC50 [1] | IC50 (Vasopressin V1a receptor) | IC50 [2] | Ki [2] | IC50 [3] | Ki [3] | IC50 (B2 bradykinin receptor) | IC50 [4] | Ki [4] | IC50 [5] | Ki [5] | IC50 (Cytochrome P450 2C19) | Ki (Cytochrome P450 2C19)

CC1(C)O[C@@H]2C[C@H]3[C@@H]4C[C@H](F)C5=CC(=O)C=C[C@]5(C)[C@H]4[C@@H](O)C[C@]3(C)[C@]2(C(=O)CO)O1 [FLUNISOLIDE]
Not Active: IC50 [1] | IC50 (Vasopressin V1a receptor) | IC50 [2] | Ki [2] | IC50 [3] | Ki [3] | IC50 (B2 bradykinin receptor) | IC50 [4] | Ki [4] | IC50 [5] | Ki [5] | IC50 (Cytochrome P450 2C19) | Ki (Cytochrome P450 2C19)

CC1(C)O[C@@H]2C[C@H]3[C@@H]4C[C@H](F)C5=CC(=O)C=C[C@]5(C)[C@@]4(F)[C@@H](O)C[C@]3(C)[C@]2(C(=O)CO)O1 [FLUOCINOLONE ACETONIDE]
Not Active: IC50 [1] | IC50 (Vasopressin V1a receptor) | IC50 [2] | Ki [2] | IC50 [3] | Ki [3] | IC50 (B2 bradykinin receptor) | IC50 [4] | Ki [4] | IC50 [5] | Ki [5] | IC50 (Cytochrome P450 2C19) | Ki (Cytochrome P450 2C19)

CC1(C)O[C@@H]2C[C@H]3[C@@H]4C[C@H](F)C5=CC(=O)CC[C@]5(C)[C@H]4[C@@H](O)C[C@]3(C)[C@]2(C(=O)CO)O1 [FLURANDRENOLIDE]
Not Active: IC50 [1] | IC50 (Vasopressin V1a receptor) | IC50 [2] | Ki [2] | IC50 [3] | Ki [3] | IC50 (B2 bradykinin receptor) | IC50 [4] | Ki [4] | IC50 [5] | Ki [5] | IC50 (Cytochrome P450 2C19) | Ki (Cytochrome P450 2C19)
